*1 amine or outer side, *2 acyl side, *3 side chain or, on linkers, in order; H or OH if unused. Where a SMILES comes first, the peptide text is derived from it. Bridges are numbered along the chain shown (N, C = ends). [ ]: non-standard residue; d: D form. TATA = O=C(CC[*:1])N1CN(C(=O)CC[*:2])CN(C(=O)CC[*:3])C1; Phe(4-guanidino) = N=C(N)Nc1ccc(C[C@H](N)C(=O)O)cc1 A value given as a limit tells only on which side of the number the result lay.

Drawing on ChEMBL document CHEMBL3992518, “Peptide Macrocycle Inhibitor of Coagulation Factor XII with Subnanomolar Affinity and High Target Selectivity” (J Med Chem, 2017), this text covers Ki for 16 molecules.

This experiment deals with T1, Coagulation factor XII (Homo sapiens, UniProt P00748).
T1 sequence (P00748 whole entry): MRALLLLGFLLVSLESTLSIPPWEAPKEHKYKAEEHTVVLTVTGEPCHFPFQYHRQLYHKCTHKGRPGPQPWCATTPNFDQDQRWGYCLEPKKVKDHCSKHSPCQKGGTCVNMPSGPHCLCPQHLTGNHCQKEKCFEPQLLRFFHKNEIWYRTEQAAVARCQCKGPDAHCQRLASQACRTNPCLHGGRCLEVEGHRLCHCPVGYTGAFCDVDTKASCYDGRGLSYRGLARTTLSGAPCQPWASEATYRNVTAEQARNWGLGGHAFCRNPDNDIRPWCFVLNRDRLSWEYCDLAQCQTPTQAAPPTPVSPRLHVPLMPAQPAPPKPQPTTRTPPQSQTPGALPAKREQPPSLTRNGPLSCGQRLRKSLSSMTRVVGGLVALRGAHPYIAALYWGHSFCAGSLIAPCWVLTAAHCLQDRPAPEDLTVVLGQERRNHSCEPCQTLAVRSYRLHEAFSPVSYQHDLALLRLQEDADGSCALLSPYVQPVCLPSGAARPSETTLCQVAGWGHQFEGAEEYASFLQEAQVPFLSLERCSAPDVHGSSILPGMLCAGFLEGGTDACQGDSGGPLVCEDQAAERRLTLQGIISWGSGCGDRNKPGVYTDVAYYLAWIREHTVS
Put plainly: Inhibition of human beta factor 12a using fluorogenic substrate Boc-Gln-Gly-Arg-AMC preincubated for 10 mins followed by addition of substrate measured every min for 30 mins.
For the molecule `CC(C)C[C@@H]1NC(=O)[C@H](CCC(N)=O)NC(=O)[C@H](CCCNC(=N)N)NC(=O)[C@@H]2CSCCC(=O)N3CN(CN(C3)C(=O)CCSC[C@H](NC(=O)[C@@H](N)CCCNC(=N)N)C(=O)N[C@@H](Cc3cccc(F)c3)C(=O)N[C@@H](CCCNC(=N)N)C(=O)N[C@@H](CC(C)C)C(=O)N3CCC[C@H]3C(=O)N2)C(=O)CCSC[C@@H](C(=O)N[C@@H](CCCNC(=N)N)C(=O)N[C@@H](Cc2c[nH]c3ccccc23)C(=O)O)NC(=O)[C@H](CCCNC(=N)N)NC1=O`, the Ki was determined as 4.5 nM. This counts as single-digit nanomolar. `CC(C)C[C@@H]1NC(=O)[C@H](CCC(N)=O)NC(=O)[C@H](CCCNC(=N)N)NC(=O)[C@@H]2CSCCC(=O)N3CN(CN(C3)C(=O)CCSC[C@H](NC(=O)[C@@H](N)C(C)C)C(=O)N[C@@H](Cc3ccccc3)C(=O)N[C@@H](CCCNC(=N)N)C(=O)N[C@@H](CC(C)C)C(=O)N3CCC[C@H]3C(=O)N2)C(=O)CCSC[C@@H](C(=O)N[C@@H](CCCNC(=N)N)C(=O)O)NC(=O)[C@H](CCCNC(=N)N)NC1=O` (H-VCFRLPCRQLRCR-OH; linker 2-7-12 via TATA) gave a Ki of 99 nM. This Ki is about 22-fold higher than that of the molecule before.

In turn, `CC[C@H](C)[C@H](N)C(=O)N[C@H]1CSCCC(=O)N2CN3CN(C2)C(=O)CCSC[C@H](NC(=O)[C@@H]2CCCN2C(=O)[C@H](CC(C)C)NC(=O)[C@H](CCCNC(=N)N)NC(=O)[C@H](Cc2ccccc2)NC1=O)C(=O)N[C@@H](CCCNC(=N)N)C(=O)N[C@@H](CCC(N)=O)C(=O)N[C@@H](CC(C)C)C(=O)N[C@@H](CCCNC(=N)N)C(=O)N[C@H](C(=O)N[C@@H](CCCNC(=N)N)C(=O)O)CSCCC3=O` (H-ICFRLPCRQLRCR-OH; linker 2-7-12 via TATA) registered a Ki of 83 nM.

For `CC(C)C[C@@H]1NC(=O)[C@H](Cc2cnc[nH]2)NC(=O)[C@H](CCCNC(=N)N)NC(=O)[C@@H]2CSCCC(=O)N3CN(CN(C3)C(=O)CCSC[C@H](NC(=O)[C@@H](N)CCCNC(=N)N)C(=O)N[C@@H](Cc3ccccc3)C(=O)N[C@@H](CCCNC(=N)N)C(=O)N[C@@H](CC(C)C)C(=O)N3CCC[C@H]3C(=O)N2)C(=O)CCSC[C@@H](C(=O)N[C@@H](CCCNC(=N)N)C(=O)N[C@@H](Cc2c[nH]c3ccccc23)C(=O)O)NC(=O)[C@H](CCCNC(=N)N)NC1=O` (H-RCFRLPCRHLRCRW-OH; linker 2-7-12 via TATA), the inhibition constant (Ki) is greater than 3000 nM. In the case of `CC(C)C[C@@H]1NC(=O)[C@H](CCC(N)=O)NC(=O)[C@H](CCCNC(=N)N)NC(=O)[C@@H]2CSCCC(=O)N3CN(CN(C3)C(=O)CCSC[C@H](NC(=O)[C@@H](N)CCCNC(=N)N)C(=O)N[C@@H](Cc3ccccc3)C(=O)N[C@@H](CCCNC(=N)N)C(=O)N[C@@H](CC(C)C)C(=O)N[C@@H](CC(N)=O)C(=O)N2)C(=O)CCSC[C@@H](C(=O)N[C@@H](CCCNC(=N)N)C(=O)N[C@@H](Cc2c[nH]c3ccccc23)C(=O)O)NC(=O)[C@H](CCCNC(=N)N)NC1=O` (H-RCFRLNCRQLRCRW-OH; linker 2-7-12 via TATA) it was 104 nM; in that of `CC(C)C[C@@H]1NC(=O)[C@H](CC(N)=O)NC(=O)[C@H](CCCNC(=N)N)NC(=O)[C@@H]2CSCCC(=O)N3CN(CN(C3)C(=O)CCSC[C@H](NC(=O)[C@@H](N)CCCNC(=N)N)C(=O)N[C@@H](Cc3ccccc3)C(=O)N[C@@H](CCCNC(=N)N)C(=O)N[C@@H](CC(C)C)C(=O)N3CCC[C@H]3C(=O)N2)C(=O)CCSC[C@@H](C(=O)N[C@@H](CCCNC(=N)N)C(=O)N[C@@H](Cc2c[nH]c3ccccc23)C(=O)O)NC(=O)[C@H](CCCNC(=N)N)NC1=O` (H-RCFRLPCRNLRCRW-OH; linker 2-7-12 via TATA), 1000 nM; in that of `CC(C)C[C@@H]1NC(=O)[C@H](CCCNC(=N)N)NC(=O)[C@H](Cc2ccccc2)NC(=O)[C@@H](NC(=O)[C@@H](N)CCCNC(=N)N)CSCCC(=O)N2CN3CN(C2)C(=O)CCSC[C@H](NC(=O)[C@@H]2CCCN2C1=O)C(=O)N[C@@H](CCCNC(=N)N)C(=O)N[C@@H](CCC(N)=O)C(=O)N[C@@H](C)C(=O)N[C@@H](CCCNC(=N)N)C(=O)N[C@H](C(=O)N[C@@H](CCCNC(=N)N)C(=O)N[C@@H](Cc1c[nH]c2ccccc12)C(=O)O)CSCCC3=O` (H-RCFRLPCRQARCRW-OH; linker 2-7-12 via TATA), 1040 nM.

As for `CC(C)C[C@@H]1NC(=O)[C@H](CCC(N)=O)NC(=O)[C@H](CCCNC(=N)N)NC(=O)[C@@H]2CSCCC(=O)N3CN(CN(C3)C(=O)CCSC[C@H](NC(=O)[C@@H](N)CCCNC(=N)N)C(=O)N[C@@H](Cc3ccc(-c4ccccc4)cc3)C(=O)N[C@@H](CCCNC(=N)N)C(=O)N[C@@H](CC(C)C)C(=O)N3CCC[C@H]3C(=O)N2)C(=O)CCSC[C@@H](C(=O)N[C@@H](CCCNC(=N)N)C(=O)N[C@@H](Cc2c[nH]c3ccccc23)C(=O)O)NC(=O)[C@H](CCCNC(=N)N)NC1=O`, the Ki was greater than 1000 nM.

As for `CC(C)C[C@@H]1NC(=O)[C@H](CC(=O)O)NC(=O)[C@H](CCCNC(=N)N)NC(=O)[C@@H]2CSCCC(=O)N3CN(CN(C3)C(=O)CCSC[C@H](NC(=O)[C@@H](N)CCCNC(=N)N)C(=O)N[C@@H](Cc3ccccc3)C(=O)N[C@@H](CCCNC(=N)N)C(=O)N[C@@H](CC(C)C)C(=O)N3CCC[C@H]3C(=O)N2)C(=O)CCSC[C@@H](C(=O)N[C@@H](CCCNC(=N)N)C(=O)N[C@@H](Cc2c[nH]c3ccccc23)C(=O)O)NC(=O)[C@H](CCCNC(=N)N)NC1=O` (H-RCFRLPCRDLRCRW-OH; linker 2-7-12 via TATA), the Ki came out at 550 nM.

Molecule `CC(C)C[C@@H]1NC(=O)[C@H](CCC(N)=O)NC(=O)[C@H](CCCNC(=N)N)NC(=O)[C@@H]2CSCCC(=O)N3CN(CN(C3)C(=O)CCSC[C@H](NC(=O)[C@@H](N)CCCNC(=N)N)C(=O)N[C@@H](Cc3ccncc3)C(=O)N[C@@H](CCCNC(=N)N)C(=O)N[C@@H](CC(C)C)C(=O)N3CCC[C@H]3C(=O)N2)C(=O)CCSC[C@@H](C(=O)N[C@@H](CCCNC(=N)N)C(=O)N[C@@H](Cc2c[nH]c3ccccc23)C(=O)O)NC(=O)[C@H](CCCNC(=N)N)NC1=O` registered a Ki of 57 nM. In the case of `CC(C)C[C@@H]1NC(=O)[C@H](CCC(N)=O)NC(=O)[C@H](CCCNC(=N)N)NC(=O)[C@@H]2CSCCC(=O)N3CN(CN(C3)C(=O)CCSC[C@H](NC(=O)[C@@H](N)CCCNC(=N)N)C(=O)N[C@@H](CCc3ccccc3)C(=O)N[C@@H](CCCNC(=N)N)C(=O)N[C@@H](CC(C)C)C(=O)N3CCC[C@H]3C(=O)N2)C(=O)CCSC[C@@H](C(=O)N[C@@H](CCCNC(=N)N)C(=O)N[C@@H](Cc2c[nH]c3ccccc23)C(=O)O)NC(=O)[C@H](CCCNC(=N)N)NC1=O` it was 366 nM.

Regarding `CC(C)C[C@@H]1NC(=O)[C@H](CCC(N)=O)NC(=O)[C@H](CCCNC(=N)N)NC(=O)[C@@H]2CSCCC(=O)N3CN(CN(C3)C(=O)CCSC[C@H](NC(=O)[C@@H](N)CCCNC(=N)N)C(=O)N[C@@H](Cc3ccccc3)C(=O)N[C@@H](CCCNC(=N)N)C(=O)N[C@@H](CC(C)C)C(=O)N[C@@H](CC(=O)O)C(=O)N2)C(=O)CCSC[C@@H](C(=O)N[C@@H](CCCNC(=N)N)C(=O)N[C@@H](Cc2c[nH]c3ccccc23)C(=O)O)NC(=O)[C@H](CCCNC(=N)N)NC1=O` (H-RCFRLDCRQLRCRW-OH; linker 2-7-12 via TATA), the Ki was determined as 120 nM. On to `CC(C)C[C@@H]1NC(=O)[C@H](CCC(N)=O)NC(=O)[C@H](CCCNC(=N)N)NC(=O)[C@@H]2CSCCC(=O)N3CN(CN(C3)C(=O)CCSC[C@H](NC(=O)[C@@H](N)CCCNC(=N)N)C(=O)N[C@@H](Cc3ccccc3)C(=O)N[C@@H](Cc3ccc(NC(=N)N)cc3)C(=O)N[C@@H](CC(C)C)C(=O)N3CCC[C@H]3C(=O)N2)C(=O)CCSC[C@@H](C(=O)N[C@@H](CCCNC(=N)N)C(=O)N[C@@H](Cc2c[nH]c3ccccc23)C(=O)O)NC(=O)[C@H](CCCNC(=N)N)NC1=O` (H-RCF[Phe(4-guanidino)]LPCRQLRCRW-OH; linker 2-7-12 via TATA), for which the inhibition constant Ki stood at 380 nM. As for `CC(C)C[C@@H]1NC(=O)[C@H](CCC(N)=O)NC(=O)[C@H](CCCNC(=N)N)NC(=O)[C@@H]2CSCCC(=O)N3CN(CN(C3)C(=O)CCSC[C@H](NC(=O)[C@@H](N)CCCNC(=N)N)C(=O)N[C@@H](CC(C)C)C(=O)N[C@@H](CCCNC(=N)N)C(=O)N[C@@H](CC(C)C)C(=O)N3CCC[C@H]3C(=O)N2)C(=O)CCSC[C@@H](C(=O)N[C@@H](CCCNC(=N)N)C(=O)N[C@@H](Cc2c[nH]c3ccccc23)C(=O)O)NC(=O)[C@H](CCCNC(=N)N)NC1=O` (H-RCLRLPCRQLRCRW-OH; linker 2-7-12 via TATA), the figure is 28 nM; as for `Cc1cccc(C[C@@H]2NC(=O)[C@@H](NC(=O)[C@@H](N)CCCNC(=N)N)CSCCC(=O)N3CN4CN(C3)C(=O)CCSC[C@H](NC(=O)[C@@H]3CCCN3C(=O)[C@H](CC(C)C)NC(=O)[C@H](CCCNC(=N)N)NC2=O)C(=O)N[C@@H](CCCNC(=N)N)C(=O)N[C@@H](CCC(N)=O)C(=O)N[C@@H](CC(C)C)C(=O)N[C@@H](CCCNC(=N)N)C(=O)N[C@H](C(=O)N[C@@H](CCCNC(=N)N)C(=O)N[C@@H](Cc2c[nH]c3ccccc23)C(=O)O)CSCCC4=O)c1`, 3.7 nM. As for `CC(C)C[C@@H]1NC(=O)[C@H](CCC(N)=O)NC(=O)[C@H](CCCNC(=N)N)NC(=O)[C@@H]2CSCCC(=O)N3CN(CN(C3)C(=O)CCSC[C@H](NC(=O)[C@@H](N)CCCNC(=N)N)C(=O)N[C@@H](Cc3ccccc3)C(=O)N[C@@H](CCCNC(=N)N)C(=O)N[C@@H](CC(C)C)C(=O)N3CCC[C@H]3C(=O)N2)C(=O)CCSC[C@@H](C(=O)N[C@@H](CCCNC(=N)N)C(=O)N[C@@H](Cc2c[nH]c3ccccc23)C(=O)O)NC(=O)[C@H](CCCNC(=N)N)NC1=O` (H-RCFRLPCRQLRCRW-OH; linker 2-7-12 via TATA), the figure is 10.2 nM.
